# Experimental data reported in PubChem BioAssay (NCI).
#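 96-well plates; 48 h exposure; 5 concentrations. Endpoints by linear interpolation between flanking doses. Not reached: highest tested concentration assigned. Abbreviation: GI50, concentration required for 50% inhibition of growth. At the TGI there is no net growth.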
# Tested on: XF 498 CNS
# Assay: NCI tumour cell line growth inhibition, 48 h
Compound,TGI [µM],GI50 [µM]
COc1cc(NCc2ccc3nc(N)nc(N)c3c2C)cc(OC)c1OC (tested in a mixture with another compound),8.19,–
COc1ccc(NC(=O)/C(Cc2cc(=O)oc3cc(O)ccc23)=N\NC(C)(C)C)c(OC)c1,> 100,–
O=C1/C(=C/c2ccc3c(c2)OCO3)SC2C=Nc3ccccc3N12 (configuration not stated),> 100,–
CCOc1ccc(NC(=O)C(=O)CC(=O)c2c(C)n([O-])c3ccccc3[n+]2=O)cc1,> 100,–
CC(=O)OC12C=CC(=O)N1c1ccccc1C(=O)O2 (configuration not stated),> 100,–
Cc1cc(Cl)ccc1NC(=O)C(=O)Cc1nc2ccccc2o1,> 100,–
OCC1OC(c2nc(C3=NCCCN3)cs2)C(O)C1O (configuration not stated),> 100,–
Cc1cc(N(CCC#N)CCC#N)ccc1N=Nc1ccc(C(=O)O)cc1,> 100,–
CN(C)CC1CCCC/C1=N/OC(=O)c1ccc(Cl)cc1 (configuration not stated),> 100,–
COc1cccc(C2=NC(C(C)C)CO2)c1 (configuration not stated),> 100,–
CCOC(=O)C(=[N+]=[N-])[Si](C)(C)C,> 100,–
CCCc1nc(NC#N)nc(C(=O)Nc2ccccc2)c1CC,> 100,–
COc1cc2c(c(OC)c1OC)-c1ccc(SC)c(=O)cc1C(NC=O)CC2 (configuration not stated),> 100,–
Cc1ccc(NC(=O)CCc2cc(C(C)(C)C)nc(=S)[nH]2)cc1C,> 100,–
Cc1[nH]c2ccccc2c1C(=O)/C=C/c1ccccc1O,> 100,–
COc1ccc(CC2NCCc3c2[nH]c2ccccc32)cc1 (configuration not stated),66.5,–
CCOc1ccc(NC(=O)CC#N)cc1,> 100,–
O=C(/C=C/c1cccc2ccccc12)c1ccccc1Cl,20.6,–
O=C1/C(=C/c2ccc(Cl)cc2)CCC1CCN1CCOCC1 (configuration not stated),> 100,–
CCC[CH2][Sn]([Cl])([CH2]CCC)[CH2]CCC,0.202,0.0599
C1CN2CCN3CCN4CCN1[P+]243,> 100,–

# Tested on: DMS 114 small cell lung
# Assay: NCI tumour cell line growth inhibition, 48 h
Compound,TGI [µM],GI50 [µM]
COc1cc(NCc2ccc3nc(N)nc(N)c3c2C)cc(OC)c1OC (tested in a mixture with another compound),37.7,–
O=C1/C(=C/c2ccc3c(c2)OCO3)SC2C=Nc3ccccc3N12 (configuration not stated),> 100,–
CCOc1ccc(NC(=O)C(=O)CC(=O)c2c(C)n([O-])c3ccccc3[n+]2=O)cc1,> 100,–
Cc1cc(Cl)ccc1NC(=O)C(=O)Cc1nc2ccccc2o1,> 100,–
OCC1OC(c2nc(C3=NCCCN3)cs2)C(O)C1O (configuration not stated),> 100,–
CCC(C)COC(=O)c1ccc(N=Cc2ccc(C=Nc3ccc(C(=O)OCC(C)CC)cc3)cc2)cc1 (configuration not stated),> 100,–
Cc1cc(N(CCC#N)CCC#N)ccc1N=Nc1ccc(C(=O)O)cc1,> 100,–
N#CC(C(=O)C(=O)C(C#N)c1ccc(Br)cc1)c1ccc(Br)cc1 (configuration not stated),26.5,–
COc1cccc(C2=NC(C(C)C)CO2)c1 (configuration not stated),> 100,–
CCOC(=O)C(=[N+]=[N-])[Si](C)(C)C,> 100,–
CCCc1nc(NC#N)nc(C(=O)Nc2ccccc2)c1CC,> 100,–
O=C(CCc1n[nH]c(=S)o1)Nc1ccccc1C(F)(F)F,> 100,–
COc1cc2c(c(OC)c1OC)-c1ccc(SC)c(=O)cc1C(NC=O)CC2 (configuration not stated),< 0.01,–
Cc1ccc(NC(=O)CCc2cc(C(C)(C)C)nc(=S)[nH]2)cc1C,> 100,–
O=C(Nc1nc(=S)c2c(ncn2CCOC(=O)c2ccccc2)[nH]1)c1ccccc1,> 100,–
COc1ccc(CC2NCCc3c2[nH]c2ccccc32)cc1 (configuration not stated),> 100,–
O=C(/C=C/c1cccc2ccccc12)c1ccccc1Cl,27.6,–
Cc1ccc(/C=C/C(=O)c2sc(-c3nc(C)c(C(=O)/C=C/c4ccc(C)cc4)s3)nc2C)cc1,> 100,–
O=C1/C(=C/c2ccc(Cl)cc2)CCC1CCN1CCOCC1 (configuration not stated),> 100,–
CCC[CH2][Sn]([Cl])([CH2]CCC)[CH2]CCC,0.225,0.068
O=c1ccn([C@H]2CSC[C@@H](CO)C2)c(=O)[nH]1,> 100,–
C1CN2CCN3CCN4CCN1[P+]243,> 100,–

# Tested on: SNB-78 CNS
# Assay: NCI tumour cell line growth inhibition, 48 h
Compound,TGI [µM],GI50 [µM]
COc1cc(NCc2ccc3nc(N)nc(N)c3c2C)cc(OC)c1OC (tested in a mixture with another compound),116,–
COc1ccc(NC(=O)/C(Cc2cc(=O)oc3cc(O)ccc23)=N\NC(C)(C)C)c(OC)c1,> 100,–
O=C1/C(=C/c2ccc3c(c2)OCO3)SC2C=Nc3ccccc3N12 (configuration not stated),> 100,–
CCOc1ccc(NC(=O)C(=O)CC(=O)c2c(C)n([O-])c3ccccc3[n+]2=O)cc1,> 100,–
CC(=O)OC12C=CC(=O)N1c1ccccc1C(=O)O2 (configuration not stated),> 100,–
Cc1cc(Cl)ccc1NC(=O)C(=O)Cc1nc2ccccc2o1,> 100,–
OCC1OC(c2nc(C3=NCCCN3)cs2)C(O)C1O (configuration not stated),> 100,–
CCC(C)COC(=O)c1ccc(N=Cc2ccc(C=Nc3ccc(C(=O)OCC(C)CC)cc3)cc2)cc1 (configuration not stated),> 100,–
Cc1cc(N(CCC#N)CCC#N)ccc1N=Nc1ccc(C(=O)O)cc1,> 100,–
CN(C)CC1CCCC/C1=N/OC(=O)c1ccc(Cl)cc1 (configuration not stated),> 100,–
N#CC(C(=O)C(=O)C(C#N)c1ccc(Br)cc1)c1ccc(Br)cc1 (configuration not stated),37.4,–
COc1cccc(C2=NC(C(C)C)CO2)c1 (configuration not stated),> 100,–
CCOC(=O)C(=[N+]=[N-])[Si](C)(C)C,> 100,–
CCCc1nc(NC#N)nc(C(=O)Nc2ccccc2)c1CC,> 100,–
O=C(CCc1n[nH]c(=S)o1)Nc1ccccc1C(F)(F)F,> 100,–
COc1cc2c(c(OC)c1OC)-c1ccc(SC)c(=O)cc1C(NC=O)CC2 (configuration not stated),> 100,–
Cc1ccc(NC(=O)CCc2cc(C(C)(C)C)nc(=S)[nH]2)cc1C,> 100,–
O=C(Nc1nc(=S)c2c(ncn2CCOC(=O)c2ccccc2)[nH]1)c1ccccc1,> 100,–
COc1ccc(CC2NCCc3c2[nH]c2ccccc32)cc1 (configuration not stated),> 100,–
CCOc1ccc(NC(=O)CC#N)cc1,> 100,–
O=C(/C=C/c1cccc2ccccc12)c1ccccc1Cl,40.9,–
Cc1ccc(/C=C/C(=O)c2sc(-c3nc(C)c(C(=O)/C=C/c4ccc(C)cc4)s3)nc2C)cc1,> 100,–
O=C1/C(=C/c2ccc(Cl)cc2)CCC1CCN1CCOCC1 (configuration not stated),> 100,–
CCC[CH2][Sn]([Cl])([CH2]CCC)[CH2]CCC,0.313,0.129
O=c1ccn([C@H]2CSC[C@@H](CO)C2)c(=O)[nH]1,> 100,–
C1CN2CCN3CCN4CCN1[P+]243,> 100,–

# Tested on: SN12K1 renal
# Assay: NCI tumour cell line growth inhibition, 48 h
row,Compound,TGI [µM]
1,COc1cc(NCc2ccc3nc(N)nc(N)c3c2C)cc(OC)c1OC (tested in a mixture with another compound),36.6

# Tested on: DLD-1 colon
# Assay: NCI tumour cell line growth inhibition, 48 h
row,Compound,TGI [µM]
1,COc1cc(NCc2ccc3nc(N)nc(N)c3c2C)cc(OC)c1OC (tested in a mixture with another compound),95.6
2,O=C1/C(=C/c2ccc3c(c2)OCO3)SC2C=Nc3ccccc3N12 (configuration not stated),> 100
3,CC(=O)OC12C=CC(=O)N1c1ccccc1C(=O)O2 (configuration not stated),> 100
4,Cc1cc(Cl)ccc1NC(=O)C(=O)Cc1nc2ccccc2o1,> 100
5,OCC1OC(c2nc(C3=NCCCN3)cs2)C(O)C1O (configuration not stated),> 100
6,CCC(C)COC(=O)c1ccc(N=Cc2ccc(C=Nc3ccc(C(=O)OCC(C)CC)cc3)cc2)cc1 (configuration not stated),> 100
7,CN(C)CC1CCCC/C1=N/OC(=O)c1ccc(Cl)cc1 (configuration not stated),> 100
8,N#CC(C(=O)C(=O)C(C#N)c1ccc(Br)cc1)c1ccc(Br)cc1 (configuration not stated),34.5
9,COc1cccc(C2=NC(C(C)C)CO2)c1 (configuration not stated),> 100
10,CCOC(=O)C(=[N+]=[N-])[Si](C)(C)C,> 100
11,CCCc1nc(NC#N)nc(C(=O)Nc2ccccc2)c1CC,> 100
12,O=C(CCc1n[nH]c(=S)o1)Nc1ccccc1C(F)(F)F,> 100
13,COc1cc2c(c(OC)c1OC)-c1ccc(SC)c(=O)cc1C(NC=O)CC2 (configuration not stated),> 100
14,Cc1[nH]c2ccccc2c1C(=O)/C=C/c1ccccc1O,> 100
